In ChEMBL document CHEMBL1201862, “PubChem BioAssay data set” (2004):
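48-hour exposure; five concentrations; linearly interpolated endpoints. At the GI50, growth is halved.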 Active and inactive are the calls of the source. No stated cut-off is given here; in the data, active = GI50 up to about 1.1 µM and inactive = higher.

Tests used:
Test in all cases: growth of human tumour cells (NCI), 48 h
A498 = tested on: A498
MDA-MB-231 = tested on: MDA-MB-231
NCI-H522 = tested on: NCI-H522
IGROV-1 = tested on: IGROV-1
MDA-MB-435 = tested on: MDA-MB-435
ACHN = tested on: ACHN
NCI-H460 = tested on: NCI-H460
MOLT-4 = tested on: MOLT-4
SNB-19 = tested on: SNB-19
UACC-257 = tested on: UACC-257
RXF 393 = tested on: RXF 393
HCT-15 = tested on: HCT-15
SK-MEL-5 = tested on: SK-MEL-5
Hs-578T = tested on: Hs-578T
M14 = tested on: M14
T47D = tested on: T47D
786-0 = tested on: 786-0
Malme-3M = tested on: Malme-3M
BT-549 = tested on: BT-549

| SMILES | GI50 (A498) | GI50 (MDA-MB-231) | GI50 (NCI-H522) | GI50 (IGROV-1) | GI50 (MDA-MB-435) | GI50 (ACHN) | GI50 (NCI-H460) | GI50 (MOLT-4) | GI50 (SNB-19) | GI50 (UACC-257) | GI50 (RXF 393) | GI50 (HCT-15) [µM] | GI50 (SK-MEL-5) | GI50 (Hs-578T) | GI50 (M14) | GI50 (T47D) | GI50 (786-0) | GI50 (Malme-3M) | GI50 (BT-549) |
| --- | --- | --- | --- | --- | --- | --- | --- | --- | --- | --- | --- | --- | --- | --- | --- | --- | --- | --- | --- |
| C=C1c2cc3c(cc2CC12Cc1cc4c(cc1C2=O)CCC4)CCC3 (stereo not given) | > 100 µM (inactive) | > 100 µM (inactive) | > 100 µM (inactive) | > 100 µM (inactive) | > 100 µM (inactive) | > 100 µM (inactive) | > 100 µM (inactive) | > 100 µM (inactive) | > 100 µM (inactive) | > 100 µM (inactive) | > 100 µM (inactive) | > 100 | > 100 µM (inactive) | > 100 µM (inactive) | > 100 µM (inactive) | > 100 µM (inactive) | > 100 µM (inactive) | > 100 µM (inactive) |  |
| COc1cc(C(c2cc3c(cc2O)OCO3)N2CCCC2)cc(OC)c1OC (stereo not given) | 21.4 µM (inactive) | 15.9 µM (inactive) | 3.35 µM (inactive) | 12.4 µM (inactive) | 13.4 µM (inactive) | 15.4 µM (inactive) |  | 3.96 µM (inactive) | 19.3 µM (inactive) | 17.5 µM (inactive) |  | 8.43 | 16.4 µM (inactive) |  | 24.5 µM (inactive) | 23.2 µM (inactive) | 14.7 µM (inactive) | 6.73 µM (inactive) |  |
| CCC(=O)C1=C(OC(C)=O)C2Cc3c(n(C)c4ccccc34)C(C1)N2C (stereo not given) | 42.9 µM (inactive) |  | 15.3 µM (inactive) | 29.9 µM (inactive) |  | 27.3 µM (inactive) | 53 µM (inactive) | 34.7 µM (inactive) | > 100 µM (inactive) | 24.5 µM (inactive) |  | 18.7 | 28.2 µM (inactive) |  | 37.8 µM (inactive) |  | 22.2 µM (inactive) | 48.6 µM (inactive) |  |
| CCOC(=O)C(=CNC(=S)N/N=C1\C(=O)Nc2ccccc21)C(=O)OCC | 41.9 µM (inactive) | > 100 µM (inactive) |  |  | > 100 µM (inactive) | > 100 µM (inactive) | 47.8 µM (inactive) | 84.7 µM (inactive) | > 100 µM (inactive) | > 100 µM (inactive) | > 100 µM (inactive) |  | 90.8 µM (inactive) | 48.2 µM (inactive) | > 100 µM (inactive) | > 100 µM (inactive) | > 100 µM (inactive) |  |  |
| Cc1cc(Cl)ccc1OCC(=O)Oc1c(Cl)c(Cl)c(Cl)c(Cl)c1Cl | 25.6 µM (inactive) | 18 µM (inactive) | 17.9 µM (inactive) | 17.4 µM (inactive) | 24.2 µM (inactive) | 28.2 µM (inactive) | 22.6 µM (inactive) |  | 26.4 µM (inactive) | 19.6 µM (inactive) | 18.7 µM (inactive) | 27 | 22.9 µM (inactive) | 22.6 µM (inactive) | 26.6 µM (inactive) |  | 29.4 µM (inactive) | 19.2 µM (inactive) | 35.9 µM (inactive) |
| COP(=O)(OC)OCN(C)CC/C=C(\C)CC/C=C(\C)CCC=C(C)C | > 100 µM (inactive) | 20.2 µM (inactive) | 13.4 µM (inactive) | 12.5 µM (inactive) | 18.5 µM (inactive) | 22.8 µM (inactive) | 11.7 µM (inactive) | 13.6 µM (inactive) | 10.4 µM (inactive) | 5.02 µM (inactive) | 16.9 µM (inactive) | 16 | 11.8 µM (inactive) |  | 14.5 µM (inactive) | 16.4 µM (inactive) | 15.1 µM (inactive) | 14.9 µM (inactive) | 16.4 µM (inactive) |
| O=[N+]([O-])c1ccc2c(c1)S(=O)(=O)N1Cc3ccccc3CCN21 | > 100 µM (inactive) | > 100 µM (inactive) | > 100 µM (inactive) | > 100 µM (inactive) | > 100 µM (inactive) | > 100 µM (inactive) | > 100 µM (inactive) | > 100 µM (inactive) | 35 µM (inactive) | 29.1 µM (inactive) | > 100 µM (inactive) | > 100 | > 100 µM (inactive) | 26.7 µM (inactive) | > 100 µM (inactive) |  | 97.5 µM (inactive) | > 100 µM (inactive) |  |
| N#Cc1c(-c2ccco2)cc(-c2ccccc2)nc1O | > 100 µM (inactive) |  | > 100 µM (inactive) | > 100 µM (inactive) |  | > 100 µM (inactive) | > 100 µM (inactive) | > 100 µM (inactive) | > 100 µM (inactive) | > 100 µM (inactive) | > 100 µM (inactive) | > 100 | > 100 µM (inactive) |  | > 100 µM (inactive) |  | > 100 µM (inactive) | > 100 µM (inactive) |  |
| c1ccc(CSC2(SCc3ccccc3)CCCCC2)cc1 | > 10 µM (inactive) | > 10 µM (inactive) | > 10 µM (inactive) | > 10 µM (inactive) |  | > 10 µM (inactive) | > 10 µM (inactive) | > 10 µM (inactive) | > 10 µM (inactive) | > 10 µM (inactive) | > 10 µM (inactive) | > 10 | > 10 µM (inactive) | > 10 µM (inactive) | > 10 µM (inactive) | > 10 µM (inactive) | > 10 µM (inactive) | > 10 µM (inactive) |  |
| CC1CC(N2CCOCC2)=Nc2ccccc2N1Cc1ccccc1 (stereo not given) | 20.5 µM (inactive) | > 100 µM (inactive) | 46.5 µM (inactive) | 25.6 µM (inactive) | 56.2 µM (inactive) | > 100 µM (inactive) | > 100 µM (inactive) |  | > 100 µM (inactive) | 38.3 µM (inactive) | 16.1 µM (inactive) | > 100 | 36.3 µM (inactive) | 34.4 µM (inactive) | > 100 µM (inactive) |  | > 100 µM (inactive) | 19 µM (inactive) | 66.2 µM (inactive) |
| O[C@@H]1C[C@@H]2N[C@@](O)(C[C@@H]2O)[C@H]1O | > 100 µM (inactive) | > 100 µM (inactive) | > 100 µM (inactive) | > 100 µM (inactive) | > 100 µM (inactive) | > 100 µM (inactive) | > 100 µM (inactive) | > 100 µM (inactive) | > 100 µM (inactive) | > 100 µM (inactive) | > 100 µM (inactive) | > 100 | > 100 µM (inactive) | > 100 µM (inactive) | > 100 µM (inactive) | > 100 µM (inactive) | > 100 µM (inactive) | > 100 µM (inactive) |  |
| CC1(C)C(CCO)CC1n1cc(I)c(=O)[nH]c1=O (stereo not given) | > 100 µM (inactive) | 86.3 µM (inactive) |  |  | > 100 µM (inactive) | > 100 µM (inactive) |  | > 100 µM (inactive) | > 100 µM (inactive) | > 100 µM (inactive) | > 100 µM (inactive) | > 100 | > 100 µM (inactive) | 90.6 µM (inactive) | > 100 µM (inactive) | > 100 µM (inactive) | > 100 µM (inactive) |  |  |
| N#CCc1nc(O)c2ccccc2n1 |  | > 100 µM (inactive) |  | > 100 µM (inactive) | > 100 µM (inactive) | > 100 µM (inactive) | > 100 µM (inactive) | 39.7 µM (inactive) | > 100 µM (inactive) | > 100 µM (inactive) |  | 48 | > 100 µM (inactive) |  | > 100 µM (inactive) | 50.6 µM (inactive) | > 100 µM (inactive) |  |  |
| CCOC(=O)C(Cc1ccccc1)(Cc1ccc(O)cn1)NC(=O)c1ccccc1 (stereo not given) |  | 28.1 µM (inactive) | 15.6 µM (inactive) | 22.6 µM (inactive) | 9.51 µM (inactive) | 35.8 µM (inactive) | 27.4 µM (inactive) | 27.9 µM (inactive) | 32 µM (inactive) | 23.5 µM (inactive) | 23.8 µM (inactive) | 19.7 | 16.5 µM (inactive) | 16.3 µM (inactive) | 17.9 µM (inactive) |  | 24.9 µM (inactive) | 14.2 µM (inactive) | 30.1 µM (inactive) |
| O=c1[nH]nc(-c2ccc3ccccc3c2)[nH]1 | 80 µM (inactive) |  | > 100 µM (inactive) | 70.3 µM (inactive) | > 100 µM (inactive) | > 100 µM (inactive) | > 100 µM (inactive) | > 100 µM (inactive) | > 100 µM (inactive) | > 100 µM (inactive) | > 100 µM (inactive) | > 100 |  | 2.81 µM (inactive) | > 100 µM (inactive) | > 100 µM (inactive) | > 100 µM (inactive) | > 100 µM (inactive) | > 100 µM (inactive) |
| O=C1CCCCCCCCCCC1CCCCCBr (stereo not given) | 14.4 µM (inactive) | 20.3 µM (inactive) | 19.6 µM (inactive) | 20.1 µM (inactive) | 40.8 µM (inactive) | 27.4 µM (inactive) | 36.6 µM (inactive) | 17.1 µM (inactive) | 25.8 µM (inactive) | 21.3 µM (inactive) | 19.6 µM (inactive) | 24.3 | 15.3 µM (inactive) | 46.8 µM (inactive) | 33 µM (inactive) | 24.2 µM (inactive) | 32.4 µM (inactive) | 15.8 µM (inactive) |  |
| CCO[C@]12CCC[C@H]1[C@@H]1C(=O)c3ccccc3C(=O)C1=C(C)O2 | 76 µM (inactive) | > 100 µM (inactive) | > 100 µM (inactive) | > 100 µM (inactive) | 39.5 µM (inactive) | 36.8 µM (inactive) | > 100 µM (inactive) | 33.6 µM (inactive) | > 100 µM (inactive) | > 100 µM (inactive) | 20.5 µM (inactive) | > 100 | 33.7 µM (inactive) | > 100 µM (inactive) | 34.3 µM (inactive) | 70 µM (inactive) | 29.2 µM (inactive) | > 100 µM (inactive) |  |
